Test results as given in patent US9469615B2, “Quinoxalines and AZA-quinoxalines as CRTH2 receptor modulators” (Merck Sharp & Dohme Corp., priority 2010, dated 2016).

Target: T1, hCRTH2 (Homo sapiens, UniProt Q9Y5Y4)
T1 construct: expressed in transfected cells; host or cells: HEK (human embryonic kidney) cells expressing hCRTH2; membrane preparation
T1 sequence (Q9Y5Y4 1-395): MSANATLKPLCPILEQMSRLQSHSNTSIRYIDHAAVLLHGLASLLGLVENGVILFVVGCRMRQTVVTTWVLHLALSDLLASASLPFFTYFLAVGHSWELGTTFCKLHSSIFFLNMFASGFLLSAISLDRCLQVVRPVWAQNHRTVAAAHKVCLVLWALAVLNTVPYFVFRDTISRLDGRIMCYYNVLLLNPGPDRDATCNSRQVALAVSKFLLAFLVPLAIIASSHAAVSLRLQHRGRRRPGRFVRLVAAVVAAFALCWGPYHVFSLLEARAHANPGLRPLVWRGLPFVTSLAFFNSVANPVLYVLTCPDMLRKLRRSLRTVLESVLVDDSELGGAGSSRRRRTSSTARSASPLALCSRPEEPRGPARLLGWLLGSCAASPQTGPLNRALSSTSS
Test: Radioligand binding assay ([3H]PGD2 competition, HEK-hCRTH2 membranes)
Method in brief: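 Displacement of 3.0 nM [3H]PGD2 from human CRTH2 expressed in HEK membranes was measured at room temperature over 60 min. Unlabelled PGD2 at 10 μM gave non-specific binding.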

Row | Compound | Ki ([3H]PGD2 competition, Table B) | Ki ([3H]PGD2 binding, values in text)
1 | O=C(O)CCCCc1nc2cc(C(=O)N[C@@H]3c4ccccc4C[C@H]3O)ccc2nc1-c1ccc(F)cc1 [compound 510, 5-(3-(4-fluorophenyl)-7-(((1R,2R)-2-hydroxy-2,3-dihydro-1H-inden-1-yl)carbamoyl)quinoxalin-2-yl)pentanoic acid] | 20.1 to 200 nM | –
2 | O=C(O)CCCCc1nc2cc(C(=O)N[C@H]3c4ccccc4C[C@@H]3O)ccc2nc1-c1ccc(F)cc1 [compound 511, 5-(3-(4-fluorophenyl)-7-(((1S,2S)-2-hydroxy-2,3-dihydro-1H-inden-1-yl)carbamoyl)quinoxalin-2-yl)pentanoic acid] | 2.1 to 20 nM | –
3 | O=C(O)CCCCc1nc2cc(C(=O)N[C@@H]3CCOc4ccccc43)ccc2nc1-c1ccccc1 [compound 512, (R)-5-(7-(chroman-4-ylcarbamoyl)-3-phenylquinoxalin-2-yl)pentanoic acid] | 0.1 to 2 nM | –
4 | O=C(O)CCCCc1nc2cc(C(=O)N[C@H]3CCOc4ccccc43)ccc2nc1-c1ccccc1 [compound 513, (S)-5-(7-(chroman-4-ylcarbamoyl)-3-phenylquinoxalin-2-yl)pentanoic acid] | 0.1 to 2 nM | –
5 | C[C@H]1CN(c2ccccc2)CCN1C(=O)c1ccc2nc(-c3ccc(Cl)cc3)c(CCCCC(=O)O)nc2c1 [compound 514, (S)-5-(3-(4-chlorophenyl)-7-(2-methyl-4-phenyl-piperazine-1-carbonyl)quinoxalin-2-yl)pentanoic acid] | 2.1 to 20 nM | –
6 | C[C@H]1CN(c2ccccc2)CCN1C(=O)c1ccc2nc(-c3ccc(F)cc3)c(CCCCC(=O)O)nc2c1 [compound 515, (S)-5-(3-(4-fluorophenyl)-7-(2-methyl-4-phenylpiperazine-1-carbonyl)quinoxalin-2-yl)pentanoic acid] | 2.1 to 20 nM | –
7 | C[C@H]1CN(c2ccc(F)cc2)CCN1C(=O)c1ccc2nc(-c3ccccc3)c(CCCCC(=O)O)nc2c1 [compound 516, (S)-5-(7-(4-(4-fluorophenyl)-2-methylpiperazine-1-carbonyl)-3-phenylquinoxalin-2-yl)pentanoic acid] | 2.1 to 20 nM | –
8 | C[C@@H](CCCc1nc2cc(C(=O)N[C@H](C)c3ccc(Cl)cc3)ccc2nc1-c1ccc(F)cc1)C(=O)O [compound 517, (S)-5-(7-(((R)-1-(4-chlorophenyl)ethyl)carbamoyl)-3-(4-fluorophenyl)quinoxalin-2-yl)-2-methyl-pentanoic acid] | 2.1 to 20 nM | –
9 | C[C@@H](CCCc1nc2cc(C(=O)N[C@@H]3CCCc4cc(F)ccc43)ccc2nc1-c1ccc(F)cc1)C(=O)O [compound 518, (S)-5-(7-(((R)-6-fluoro-1,2,3,4-tetrahydronaphthalen-1-yl)carbamoyl)-3-(4-fluorophenyl)quinoxalin-2-yl)-2-methylpentanoic acid] | 2.1 to 20 nM | –
10 | C[C@@H](CCCc1nc2cc(C(=O)N[C@@H]3CCCc4cc(Cl)ccc43)ccc2nc1-c1ccc(F)cc1)C(=O)O [compound 519, (S)-5-(7-(((R)-6-chloro-1,2,3,4-tetrahydronaphthalen-1-yl)carbamoyl)-3-(4-fluorophenyl)quinoxalin-2-yl)-2-methylpentanoic acid] | 2.1 to 20 nM | –
11 | C[C@@H](CCCc1nc2cc(C(=O)N[C@@H]3CCOc4ccccc43)ccc2nc1-c1ccc(F)cc1)C(=O)O [compound 520, (S)-5-(7-((R)-chroman-4-ylcarbamoyl)-3-(4-fluorophenyl)quinoxalin-2-yl)-2-methylpentanoic acid] | 2.1 to 20 nM | –
12 | C[C@@H](CCCc1nc2cc(C(=O)N[C@@H]3CCCc4ncccc43)ccc2nc1-c1ccc(F)cc1)C(=O)O [compound 521, (S)-5-(3-(4-fluorophenyl)-7-(((R)-5,6,7,8-tetrahydroquinolin-5-yl)carbamoyl)quinoxalin-2-yl)-2-methylpentanoic acid] | 20.1 to 200 nM | –
13 | C[C@@H](CCCc1nc2cc(C(=O)N[C@@H]3CCc4cc(Cl)ccc43)ccc2nc1-c1ccc(F)cc1)C(=O)O [compound 522, (S)-5-(7-(((R)-5-chloro-2,3-dihydro-1H-inden-1-yl)carbamoyl)-3-(4-fluorophenyl)quinoxalin-2-yl)-2-methylpentanoic acid] | 2.1 to 20 nM | –
14 | C[C@@H](CCCc1nc2cc(C(=O)N[C@@H]3CCc4cc(F)ccc43)ccc2nc1-c1ccc(F)cc1)C(=O)O [compound 523, (S)-5-(7-(((R)-5-fluoro-2,3-dihydro-1H-inden-1-yl)carbamoyl)-3-(4-fluorophenyl)quinoxalin-2-yl)-2-methylpentanoic acid] | 2.1 to 20 nM | –
15 | C[C@@H](CCCc1nc2cc(C(=O)N3CCN(c4ccccc4)CC3)ccc2nc1-c1ccc(F)cc1)C(=O)O [compound 524, (S)-5-(3-(4-fluorophenyl)-7-(4-phenylpiperazine-1-carbonyl)quinoxalin-2-yl)-2-methylpentanoic acid] | 2.1 to 20 nM | –
16 | Cc1nnc(CNC(=O)c2ccc3nc(-c4ccc(F)cc4)c(CCCCC(=O)O)nc3c2)o1 [compound 525, 5-(3-(4-fluorophenyl)-7-(((5-methyl-1,3,4-oxadiazol-2-yl)methyl)carbamoyl)quinoxalin-2-yl) pentanoic acid] | 20.1 to 200 nM | –

Row | Compound | Ki ([3H]PGD2 competition, Table B) | Ki ([3H]PGD2 binding, values in text)
17 | Cc1cc2nc(-c3ccccc3)c(CCCCC(=O)O)nc2cc1C(=O)N[C@@H]1CCCc2ccccc21 [compound 526, (R)-5-(6-methyl-3-phenyl-7-((1,2,3,4-tetrahydronaphthalen-1-yl)carbamoyl)quinoxalin-2-yl)pentanoic acid] | 201 to 700 nM | 259 nM
18 | C[C@@H](NC(=O)c1ccc2nc(-c3ccc(F)cc3)c(CCCC(F)(F)C(=O)O)nc2c1)c1ccc(Cl)cc1 [compound 527, (R)-5-(7-((1-(4-chlorophenyl)ethyl)carbamoyl)-3-(4-fluorophenyl)quinoxalin-2-yl)-2,2-difluoropentanoic acid] | 2.1 to 20 nM | –
19 | O=C(N[C@H](c1ccc(F)cc1)C(F)(F)F)c1ccc2nc(-c3ccc(F)cc3)c(CCCC(F)(F)C(=O)O)nc2c1 [compound 528, (R)-2,2-difluoro-5-(3-(4-fluorophenyl)-7-((2,2,2-trifluoro-1-(4-fluorophenyl)ethyl)carbamoyl)quinoxalin-2-yl)pentanoic acid] | 20.1 to 200 nM | –
20 | CN(Cc1ccc(F)cc1)C(=O)c1ccc2nc(-c3ccc(F)cc3)c(CCCC(F)(F)C(=O)O)nc2c1 [compound 529, 2,2-difluoro-5-(7-((4-fluorobenzyl)(methyl)carbamoyl)-3-(4-fluorophenyl)quinoxalin-2-yl)pentanoic acid] | 20.1 to 200 nM | –
21 | O=C(c1ccc2nc(-c3ccc(F)cc3)c(CCCC(F)(F)C(=O)O)nc2c1)N1CCN(c2ccccc2)CC1 [compound 530] | 20.1 to 200 nM | –
22 | O=C(c1ccc2nc(-c3ccc(F)cc3)c(CCCC(F)(F)C(=O)O)nc2c1)N1CCC(c2ccccc2)CC1 [compound 531, 2,2-difluoro-5-(3-(4-fluorophenyl)-7-(4-phenylpiperidine-1-carbonyl)quinoxalin-2-yl)pentanoic acid] | 2.1 to 20 nM | –
23 | O=C(O)CCCCc1nc2cc(C(=O)N[C@@H]3CCOc4cc(F)ccc43)ccc2nc1-c1ccc(Cl)cc1 [compound 532, (R)-5-(3-(4-chlorophenyl)-7-((7-fluorochroman-4-yl)carbamoyl)quinoxalin-2-yl)pentanoic acid] | 2.1 to 20 nM | –
24 | O=C(O)CCCCc1nc2cc(C(=O)N[C@@H]3CCOc4cc(F)c(F)cc43)ccc2nc1-c1ccc(Cl)cc1 [compound 533, (R)-5-(3-(4-chlorophenyl)-7-((6,7-difluorochroman-4-yl)carbamoyl)quinoxalin-2-yl)pentanoic acid] | 2.1 to 20 nM | –
25 | O=C(O)CCCCc1nc2cc(C(=O)N[C@H]3CCOc4ccc(F)cc43)ccc2nc1-c1ccc(Cl)cc1 [compound 534, (S)-5-(3-(4-chlorophenyl)-7-((6-fluorochroman-4-yl)carbamoyl)quinoxalin-2-yl)pentanoic acid] | 2.1 to 20 nM | –
26 | C[C@H](NC(=O)c1ccc2nc(-c3ccc(F)cc3)c(CCCCC(=O)O)nc2c1)c1ccc2ccccc2c1 [compound 535, (S)-5-(3-(4-fluorophenyl)-7-((1-(naphthalen-2-yl)ethyl)carbamoyl)quinoxalin-2-yl)pentanoic acid] | 2.1 to 20 nM | –
27 | C[C@H](NC(=O)c1ccc2nc(-c3ccc(F)cc3)c(CCCCC(=O)O)nc2c1)c1cccc2ccccc12 [compound 536, (S)-5-(3-(4-fluorophenyl)-7-((1-(naphthalen-1-yl)ethyl)carbamoyl)quinoxalin-2-yl)pentanoic acid] | 2.1 to 20 nM | –
28 | O=C(O)CCCCc1nc2cc(C(=O)N[C@@H]3CCOc4ccc(F)cc43)ccc2nc1-c1ccc(F)cc1 [compound 537, (R)-5-(7((6-fluorochroman-4-yl)carbamoyl)-3-(4-fluorophenyl)quinoxalin-2-yl)pentanoic acid] | 2.1 to 20 nM | –
29 | O=C(O)CCCCc1nc2cc(C(=O)N[C@@H]3CCOc4cc(F)c(F)cc43)ccc2nc1-c1ccc(F)cc1 [compound 538, (R)-5-(7-((6,7-difluorochroman-4-yl)carbamoyl)-3-(4-fluorophenyl)quinoxalin-2-yl)pentanoic acid] | 2.1 to 20 nM | –
30 | C[C@@H]1CN(c2ccc(Cl)cc2)CCN1C(=O)c1ccc2nc(-c3ccc(Cl)cc3)c(CCCCC(=O)O)nc2c1 [compound 539, (R)-5-(3-(4-chlorophenyl)-7-(4-(4-chlorophenyl)-2-methylpiperazine-1-carbonyl)quinoxalin-2-yl)pentanoic acid] | 2.1 to 20 nM | –
31 | C[C@@H]1CN(c2ccc(Cl)cc2)CCN1C(=O)c1ccc2nc(-c3ccc(F)cc3)c(CCCCC(=O)O)nc2c1 [compound 540, (R)-5-(7-(4-(4-chlorophenyl)-2-methylpiperazine-1-carbonyl)-3-(4-fluorophenyl)quinoxalin-2-yl)pentanoic acid] | 2.1 to 20 nM | –
